Eight molecules from patent EP4663632A1, “COMPOUNDS USEFUL FOR THE MODULATION OF THE ACTIVITY OF STING” (Sulis Therapeutics ApS, priority 2024, dated 2025) can be followed below.

Assay [1] deals with T1, C-terminal domain (CTD) of human STING (Homo sapiens, UniProt Q86WV6). Description: STING binding FP assay III. To be noted: 10 nM STING (FP assay III according to the text); read-out: STING binding FP assay II, IC50. More on the design: recombinant human STING protein (155-379). As for the experimental part:
(§1) The interaction between molecules and the C-terminal domain (CTD) of human STING was evaluated using a competition binding assay. In this assay, recombinant human STING protein (155-379) and a STING binding fluorescent probe were employed. Upon binding of the probe to STING, the rotation of the fluorescent probe is slowed due to the larger molecular size of the protein-bound complex. As a result, emitted light retains its plane of polarization, leading to an increase in fluorescence polarization. Molecules competing for the probe binding site displace the probe, which leads to rapid randomization of the polarization plane of the emitted light and a subsequent decrease in measured fluorescence polarization signal. Change in polarization was measured, allowing a comparative evaluation of the binding affinities of different compounds to the target protein.
(§2) The assay was performed in 96-well plates (ThermoFisher, cat.# 237108) containing 100µl : 10 µL test compound in 10% DMSO and buffer A (150 mM NaCl, 50 mM HEPES pH 7.5, 1 mM DTT) + 90 µL prepared master mix solution of: 4 nM fluorescein-labelled STING ligand (Probe 1; synthesis described above) in buffer A + 0.055% Tween-20 (v/v) and 35 nM STING in buffer A. Post mixing, plates were agitated at 600rpm and incubated for 20 min at room temperature. Subsequent measurements of the fluorescence polarization signal were made on a BioTek Synergy-H1 plate reader, using a polarization filter; Exc: 485/20 nm, Em: […]) with a gain-setting of 75. IC50 values were determined using a standard non-linear regression four-parameter curve fit in Graphpad Prism.
The procedure for STING binding FP assay III is the same as described for STING binding FP assay I, except for a lower STING concentration. In STING binding FP assay III, a concentration of 10 nM STING in buffer A was used.

Assay [2] addresses T2, STING (Homo sapiens, UniProt Q86WV6). Description: Western Blot analysis for STING degradation (DC50) in HFF-1 cells. In kind it is cell-based. Conditions: 24h. More on the design: host or cells: HFF-1 human foreskin fibroblasts. Here is the method: To assess STING degradation in human foreskin fibroblasts HFF-1 cells (ATCC, SCRC-1041) cells were seeded at a density of 60.000 cells/well in 24-well Nunclon Delta surface treated culture plate in DMEM growth medium (supplemented with 10% FBS, 1% Pen-strep). Cells were incubated over-night at 37°C 5% CO2 to allow adhesion. Next day growth medium was renewed and a 5x concentration of test compounds (2.5% DMSO) diluted in growth medium were added to the appropriate well. The final DMSO concentration were 0.5%. Cell culture plates were returned to the incubator for additional 24h.
For cell lysing for Western Blot analysis cell culture plates were brought to ice, supernatant was removed by aspiration and cells washed 2x in ice-cold DPBS. Cells were lysed in 65 µL of RIPA buffer supplemented with cOmplete ULTRA Tablets protease inhibitor cocktail, PIERCE Phosphatase inhibitor mini tablet, Benzonase and 10mM NaF for 20 min on ice. Lysates were collected, cleared by centrifugation (13000xg for 10 min at 4°C). Samples were either analysed directly or stored at -80°C until analysis.
For Western Blotting, total protein concentration in each lysate was determined using PIERCE Gold BCA Assay kit according to manufactures protocol. 6 µg of total protein was mixed with 2x Laemmli buffer containing DTT, boiled for 5 min at 95°C, cooled on ice and loaded into each well of a 4-20% Criterion TGX gel. Proteins were separated by electrophoresis, by running for 1h at 150V. After separation proteins were blotted onto a PVDF membrane by semi-dry transfer using Trans-Blot turbo system at pre-defined BioRad MIDI protocol; 25V, 1A (fixed) for 30 min. Membranes were blocked for 1h in 5% skim milk in TBS-T20 on a rocker at room temperature followed by washing and exposure to primary antibodies against human STING 1:1000 (Cell Signalling, #13647) or loading controls Vinculin 1:1000 (Cell Signalling, #13901) or beta-Actin 1:10000 (Sigma, A5441) all diluted in 5% BSA in TBS-T20. Membranes were probed over night at 4°C on a rocker. Membranes were washed 3x in TBS-T20 followed by exposure to secondary HRP-conjugated anti-rabbit antibody or HRP-conjugated anti-mouse antibody diluted 1:10000 in 5% skim milk in TBS-T20 as appropriate. Membranes were incubated for 1h at room temperature on a rocker, then washed 3x in TBS-T20.
For generating DC50 values, the intensity of individual bands was measured using imaged and expression levels were calculated as a ratio of STING intensities vs. Reference protein intensities and normalized to DMSO control. The normalized ratios were plotted on a XY curve in GraphPad Prism where DC50 was estimated using a 4-parameter non-linear regression fitting curve.
In general terms: In western blotting, separated proteins are transferred to a membrane and probed.

Assay [3] addresses T2, STING. Description: Western Blot analysis of STING phosphorylation in human fibroblast cells (STING agonism). In kind it is cell-based. More on the design: host or cells: HFF-1 human foreskin fibroblasts. Conditions: 7.2µM-3.6nM; 24h. As for the experimental part: Human fibroblast were treated with a titration of E22, E9, E14 and E16 (7.2µM-3.6nM) for 24h prior to cell lysis and subsequently total STING, pSTING and Vinculin were assessed by western blot using rabbit anti-STING (1:1000), anti-pSTING (1:1000), anti-Vinculin (1:1000) and 2nd anti-rabbit-HRP (1:10.000) or anti-mouse-HRP (1:7500). Proteins were visualized using ImageQuant800. Control cells included untreated cells and cells treated with 300nM diABZI C3.

Assay [4] concerns the target T1, C-terminal domain (CTD) of human STING. Description: STING binding FP assay II. More on the design: recombinant human STING protein (155-379). To be noted: 7 nM STING. As for the experimental part: as §1, §2
The procedure for STING binding FP assay II is the same as described for STING binding FP assay I, except for a lower STING concentration. In STING binding FP assay II, a concentration of 7 nM STING in buffer A was used.

T1 sequence (Q86WV6 155-379): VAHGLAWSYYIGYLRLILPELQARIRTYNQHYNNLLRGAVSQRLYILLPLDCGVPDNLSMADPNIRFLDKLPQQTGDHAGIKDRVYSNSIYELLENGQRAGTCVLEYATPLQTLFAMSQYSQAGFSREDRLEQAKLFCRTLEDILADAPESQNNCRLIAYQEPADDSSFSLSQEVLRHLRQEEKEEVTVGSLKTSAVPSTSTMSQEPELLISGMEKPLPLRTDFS
T2 sequence (Q86WV6 whole entry): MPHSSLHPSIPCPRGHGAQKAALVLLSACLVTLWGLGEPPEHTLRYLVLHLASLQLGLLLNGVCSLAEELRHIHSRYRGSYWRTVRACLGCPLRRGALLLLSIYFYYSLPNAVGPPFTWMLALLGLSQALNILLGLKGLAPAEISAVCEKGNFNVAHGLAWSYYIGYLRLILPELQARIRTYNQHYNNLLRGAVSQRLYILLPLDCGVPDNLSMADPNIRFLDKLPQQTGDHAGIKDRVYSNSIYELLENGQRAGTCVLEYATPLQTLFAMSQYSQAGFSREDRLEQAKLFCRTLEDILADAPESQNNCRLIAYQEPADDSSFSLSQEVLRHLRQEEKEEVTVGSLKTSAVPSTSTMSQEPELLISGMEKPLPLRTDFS

The term IC50 denotes the concentration needed to halve the response being measured. One may read the DC50 as the midpoint of the concentration-degradation curve. For the molecule `CCn1nc(C)cc1C(=O)N=c1n(C)c2cc(C(N)=O)ccc2n1CCC(CCn1c(=NC(=O)c2cc(C)nn2CC)n(C)c2cc(C(N)=O)ccc21)OCC(=O)NCCOCCOCCOCCOCCC(=O)NCCOCCOCCOCCOCCOCCNc1cccc2c1C(=O)N(C1CCC(=O)NC1=O)C2=O` (centres unmarked) [Example 25], the IC50 in assay [1] stood at 3.1 nM. The same molecule yielded a DC50 at STING [2] (reference protein beta-actin) below 200 nM.
On to `CCn1nc(C)cc1C(=O)N=c1n(C)c2cc(C(N)=O)ccc2n1CCC(CCn1c(=NC(=O)c2cc(C)nn2CC)n(C)c2cc(C(N)=O)ccc21)OCC(=O)NCCOCCOCCOCCOCCC(=O)NCCOCCOCCNc1cccc2c1C(=O)N(C1CCC(=O)NC1=O)C2=O` (centres unmarked) [Example 23, N-[2-(2-{2-[2-(2,6-Dioxo-3-piperidyl)-1,3-dioxo-4-isoindolinylamino]ethoxy}ethoxy)ethyl]15-{[(3-{5-carbamoyl-2-[(1-ethyl-3-methyl-5-pyrazolyl)carbonylimino]-3-methyl-2,3-dihydro-1H-1,3-benzimidazol-1-yl}-1-(2-{5-carbamoyl-2-[(1-ethyl-3-methyl-5-pyrazolyl)carbonylimino]-3-methyl-2,3-dihydro-1H-1,3-benzimidazol-1-yl}ethyl)propoxy)methyl]carbonylamino}-4,7,10,13-tetraoxapentadecanamide], for which the IC50 in assay [1] turned out to be 2.9 nM. For the same molecule, the DC50 on STING [2] (reference protein beta-actin) was 200 to 1000 nM.
Molecule `CCn1nc(C)cc1C(=O)N=c1n(C)c2cc(C(N)=O)ccc2n1CCC(CCn1c(=NC(=O)c2cc(C)nn2CC)n(C)c2cc(C(N)=O)ccc21)OCC(=O)NCCOCCOCCOCCOCCOCCNc1cccc2c1C(=O)N(C1CCC(=O)NC1=O)C2=O` (centres unmarked) [Example 3, 1-(3-{[N-2-(2-{2-[2-(2-{2-[2-(2,6-Dioxo-3-piperidyl)-1,3-dioxo-4-isoindolinylamino]ethoxy}ethoxy)ethoxy]ethoxy}ethoxy)ethylcarbamoyl]methoxy}-5-{5-carbamoyl-2-[(1-ethyl-3-methyl-5-pyrazolyl)carbonylimino]-3-methyl-2,3-dihydro-1H-1 ,3-benzimidazol-1-yl}pentyl)-2-[(1-ethyl-3-methyl-5-pyrazolyl)carbonylimino]-3-methyl-2,3-dihydro-1H-1,3-benzimidazole-5-carboxamide] gave a DC50 on STING [2] (reference protein beta-actin) of 200 to 1000 nM.
For `CCn1nc(C)cc1C(=O)N=c1n(C)c2cc(C(N)=O)ccc2n1CCC(CCn1c(=NC(=O)c2cc(C)nn2CC)n(C)c2cc(C(N)=O)ccc21)OCC(=O)NCCOCCOCCOCCOCCC(=O)NCCOCCNc1cccc2c1C(=O)N(C1CCC(=O)NC1=O)C2=O` (centres unmarked) [Example 6, N-(2-{2-[2-(2,6-Dioxo-3-piperidyl)-1,3-dioxo-4-isoindolinylamino]ethoxy}ethyl)15-{[(3-{5-carbamoyl-2-[(1-ethyl-3-methyl-5-pyrazolyl)carbonylimino]-3-methyl-2,3-dihydro-1H-1 ,3-benzimidazol-1-yl}-1-(2-{5-carbamoyl-2-[(1-ethyl-3-methyl-5-pyrazolyl)carbonylimino]-3-methyl-2,3-dihydro-1H-1 ,3-benzimidazol-1-yl}ethyl)propoxy)methyl]carbonylamino}-4,7,10,13-tetraoxapentadecanamide], in assay [1], the IC50 stood at 2.6 nM. On STING [2] (reference protein beta-actin), the DC50 was 200 to 1000 nM.
As for `CCn1nc(C)cc1C(=O)N=c1n(C)c2cc(C(N)=O)ccc2n1CCC(CCn1c(=NC(=O)c2cc(C)nn2CC)n(C)c2cc(C(N)=O)ccc21)OCC(=O)NCCOCCOCCOCCOc1cccc(C(=O)c2csc([C@@H]3CCCN3C(=O)[C@@H](NC(=O)[C@H](C)NC)C3CCCCC3)n2)c1` (some centres unmarked) [Example 22], on STING [3], the “STING phosphorylation (pSTING)” value is “no STING phosphorylation was observed”.
Consider `CCn1nc(C)cc1C(=O)N=c1n(C)c2cc(C(N)=O)ccc2n1CCC(CCn1c(=NC(=O)c2cc(C)nn2CC)n(C)c2cc(C(N)=O)ccc21)OCC(=O)NCCOCCOCCOCCOCCC(=O)NCCOCCOCCOCCNc1cccc2c1C(=O)N(C1CCC(=O)NC1=O)C2=O` (centres unmarked) [Example 11, N-{2-[2-(2-{2-[2-(2,6-Dioxo-3-piperidyl)-1,3-dioxo-4-isoindolinylamino]ethoxy}ethoxy)ethoxy]ethyl}15-{[(3-{5-carbamoyl-2-[(1-ethyl-3-methyl-5-pyrazolyl)carbonylimino]-3-methyl-2,3-dihydro-1H-1,3-benzimidazol-1-yl}-1-(2-{5-carbamoyl-2-[(1-ethyl-3-methyl-5-pyrazolyl)carbonylimino]-3-methyl-2,3-dihydro-1H-1,3-benzimidazol-1-yl}ethyl)propoxy)methyl]carbonylamino}-4,7,10,13-tetraoxapentadecanamide], for which the IC50 in assay [1] was 5.3 nM. The DC50 on STING [2] (reference protein beta-actin) is below 200 nM.
For the molecule `CCn1nc(C)cc1C(=O)N=c1n(C)c2cc(C(N)=O)ccc2n1CCC(CCn1c(=NC(=O)c2cc(C)nn2CC)n(C)c2cc(C(N)=O)ccc21)OCC(=O)NCCOCCOCCOCCOCCC(=O)NCCOCCOCC(=O)N[C@H]1C[C@@H](C(=O)N[C@@H]2CCCc3ccccc32)N(C(=O)[C@@H](NC(=O)[C@H](C)NC)C2CCCCC2)C1` (some centres unmarked) [Example 26], in assay [1], the half-maximal inhibitory concentration (IC50) came to 4.4 nM. For the same molecule, the DC50 at STING [2] (reference protein vinculin) was below 200 nM.
Take `CCn1nc(C)cc1C(=O)N=c1n(C)c2cc(C(N)=O)ccc2n1CCC(CCn1c(=NC(=O)c2cc(C)nn2CC)n(C)c2cc(C(N)=O)ccc21)OCC(=O)NCCOCCOCCOCCOCCOc1cccc(C(=O)c2csc([C@@H]3CCCN3C(=O)[C@@H](NC(=O)[C@H](C)NC)C3CCCCC3)n2)c1` (some centres unmarked) [Example 9]: the IC50 in assay [4] was 8.4 nM. On STING [3], the “STING phosphorylation (pSTING)” value is listed as “no STING phosphorylation was observed”.
